Data reported in US9179674B2, “Macrocyclic picolinamide compounds with fungicidal activity” (DOW AGROSCIENCES LLC, priority 2013, dated 2015).
Where two headings read alike, the source gives them in different places.

Legend:
Assay type in all cases: in vivo
[1] = system: Mycosphaerella graminicola; Anamorph: Septoria tritici; experiment: Leaf Blotch of Wheat fungicidal activity (SEPTTR); details: Zymoseptoria tritici; for pest or weed control at 100 ppm: rate 100 ppm; for pest or weed control at 121.5 g/ha: rate 121.5 g/H
Procedure, shortened: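 Acetone solutions diluted with nine volumes of water containing 110 ppm Triton X-100, sprayed to run-off on first-leaf wheat seedlings (Yuma), inoculated with S. tritici before or after treatment. Plants held in dew chambers, then in a 20 °C greenhouse. Disease severity (0–100%) scored when untreated plants fully symptomatic; % control relative to untreated.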

[2] = system: Puccinia triticina; experiment: Wheat Brown Rust fungicidal activity (PUCCRT); details: Puccinia triticina; for pest or weed control at 100 ppm: rate 100 ppm; for pest or weed control at 121.5 g/ha: rate 121.5 g/H
Procedure, shortened: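 Yuma wheat seedlings at first-leaf stage sprayed to run-off (acetone solution in water with 110 ppm Triton X-100) or track-sprayed as EC with 0.1% Trycol 5941; inoculated with P. triticina spores before or after treatment. Overnight dark dew at 22° C., then greenhouse 24° C.; disease severity 0–100% gives percent control vs untreated.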

[3] = system: Alternaria solani; experiment: Tomato Early Blight fungicidal activity (ALTESO); details: 24 h, 1 Day Protectant, read-out: Disease Control ALTESO 1DP
Procedure: Technical grades of materials were dissolved in acetone, which were then mixed with nine volumes of water containing 110 ppm Triton X-100. The fungicide solutions were applied onto wheat seedlings using an automated booth sprayer to run-off. All sprayed plants were allowed to air dry prior to further handling. All fungicides were evaluated using the aforementioned method for their activity vs. all target diseases. Wheat leaf blotch and brown rust activity were also evaluated using track spray applications, in which case the fungicides were formulated as EC formulations, containing 0.1% Trycol 5941 in the spray solutions. Wheat plants (variety Yuma) were grown from seed in a greenhouse in 50% mineral soil/50% soil-less Metro mix until the first leaf was fully emerged, with 7-10 seedlings per pot. These plants were inoculated with an aqueous spore suspension of Septoria tritici either prior to or after fungicide treatments. After inoculation the plants were kept in 100% relative humidity (one day in a dark dew chamber followed by two to three days in a lighted dew chamber at 20° C.) to permit spores to germinate and infect the leaf. The plants were then transferred to a greenhouse set at 20° C. for disease to develop. When disease symptoms were fully expressed on the 1st leaves of untreated plants, infection levels were assessed on a scale of 0 to 100 percent disease severity. Percent disease control was calculated using the ratio of disease severity on treated plants relative to untreated plants. Evaluation of Fungicidal Activity: Tomato Early Blight (Alternaria solani; Bayer Code […]) Tomato plants (variety Outdoor girl) were propagated in soil-less Metro mix, with each pot having one plant, and used when 12 to 14 days old. Test plants were inoculated with an aqueous spore suspension of Alternaria solani 24 hr after fungicide treatments. After inoculation the plants were kept in 100% relative humidity (one day in a dark dew chamber followed by two to three days in a lighted dew chamber at 20° C.) to permit spores to germinate and infect the leaf. The plants were then transferred to a growth room at 22° C. for disease to develop. Fungicide formulation, application and disease assessment on the sprayed leaves followed the procedures as described in the Example A.

[4] = 24 h, 1 Day Protectant, read-out: Disease control SEPTTR 1DP
[5] = 72 h, 3 Day Curative, read-out: Disease control SEPTTR 3DC
[6] = 24 h, 1 Day Protectant, read-out: Disease control PUCCRT 1DP
[7] = 72 h, 3 Day Curative, read-out: Disease control PUCCRT 3DC

Row | Compound | pest or weed control at 100 ppm [1, 4] | pest or weed control at 121.5 g/ha [1, 4] | pest or weed control at 100 ppm [1, 5] | pest or weed control at 121.5 g/ha [1, 5] | pest or weed control at 100 ppm [2, 6] | pest or weed control at 121.5 g/ha [2, 6] | pest or weed control at 100 ppm [2, 7] | pest or weed control at 121.5 g/ha [2, 7] | pest or weed control at 100 ppm [3]
1 | COc1ccnc(C(=O)N[C@H]2COC[C@H](Cc3cccc4ccccc34)[C@@H](OC(=O)C(C)C)[C@H](C)OC2=O)c1OCOC(C)=O [Compound F83, (3S,6S,7R,8S)-3-(3-(acetoxymethoxy)-4-methoxypicolin-amido)-6-methyl-8-(naphthalen-1-ylmethyl)-4-oxo-1,5-dioxonan-7-yl isobutyrate] | 80 to 100% | 0 to 80% | 80 to 100% | 80 to 100% | 80 to 100% | 80 to 100% | 80 to 100% | 0 to 80% | 
2 | COc1ccnc(C(=O)N[C@H]2COC[C@H](Cc3ccc(Cl)cc3Cl)[C@@H](OC(=O)C(C)C)[C@H](C)OC2=O)c1OC(C)=O [Compound F73] | 80 to 100% | 80 to 100% | 80 to 100% | 80 to 100% | 80 to 100% | 80 to 100% | 80 to 100% | 0 to 80% | 0 to 80%
3 | COc1ccnc(C(=O)N[C@H]2COC[C@H](CC3CCCC3)[C@@H](OC(=O)C(C)C)[C@H](C)OC2=O)c1OCOC(C)=O [Compound F114] | 80 to 100% | 80 to 100% | 80 to 100% | 80 to 100% | 80 to 100% | 80 to 100% | 80 to 100% | 80 to 100% | 80 to 100%
4 | COc1ccnc(C(=O)N[C@H]2COC[C@H](Cc3ccc(C)cc3)[C@@H](OCC(C)C)[C@H](C)OC2=O)c1OCOC(C)=O [Compound F117] | 80 to 100% | 80 to 100% | 80 to 100% | 80 to 100% | 80 to 100% | 80 to 100% | 80 to 100% | 80 to 100% | 80 to 100%
5 | COc1ccnc(C(=O)N[C@H]2COC[C@H](CCc3ccccc3)[C@@H](OCC(C)C)[C@H](C)OC2=O)c1OCOC(C)=O [Compound F82] | 80 to 100% | 80 to 100% | 80 to 100% | 80 to 100% | 80 to 100% | 80 to 100% | 80 to 100% | 80 to 100% | 0 to 80%
6 | COc1ccnc(C(=O)N[C@H]2COC[C@H](Cc3ccc(F)cc3)[C@@H](OCC(C)C)[C@H](C)OC2=O)c1OC(C)=O [Compound F60] | 80 to 100% | 80 to 100% | 80 to 100% | 80 to 100% | 80 to 100% | 80 to 100% | 80 to 100% | 80 to 100% | 
7 | CCCCCO[C@@H]1[C@@H](Cc2ccc(Cl)cc2Cl)COC[C@H](NC(=O)c2nccc(OC)c2OCOC(=O)COCC)C(=O)O[C@H]1C [Compound F122] |  | 80 to 100% |  |  |  | 80 to 100% |  | 0 to 80% | 80 to 100%
8 | COc1ccnc(C(=O)N[C@H]2COC[C@H](CC(F)(F)F)[C@@H](OC3CCCC3)[C@H](C)OC2=O)c1OCOC(C)=O [Compound F105] | 80 to 100% | 80 to 100% | 80 to 100% | 80 to 100% | 80 to 100% | 80 to 100% | 80 to 100% | 80 to 100% | 0 to 80%
9 | COc1ccnc(C(=O)N[C@H]2COC[C@H](CCC(C)C)[C@@H](OC(=O)C3CC3)[C@H](C)OC2=O)c1OCOC(C)=O [Compound F108] | 80 to 100% | 80 to 100% | 80 to 100% | 80 to 100% | 80 to 100% | 80 to 100% | 80 to 100% | 80 to 100% | 80 to 100%
10 | COc1ccnc(C(=O)N[C@H]2COC[C@H](Cc3ccc(C)cc3)[C@@H](OCC(C)C)[C@H](C)OC2=O)c1OC(C)=O [Compound F80] | 80 to 100% | 80 to 100% | 80 to 100% | 80 to 100% | 80 to 100% | 80 to 100% | 80 to 100% | 80 to 100% | 80 to 100%
11 | COc1ccnc(C(=O)N[C@H]2COC[C@H](Cc3ccc(Cl)cc3Cl)[C@@H](OC(=O)C(C)C)[C@H](C)OC2=O)c1OCOC(C)=O [Compound F110] | 80 to 100% | 80 to 100% | 80 to 100% | 80 to 100% | 80 to 100% | 80 to 100% | 80 to 100% | 0 to 80% | 80 to 100%
12 | CCCCCO[C@@H]1[C@@H](Cc2ccc(Cl)cc2Cl)COC[C@H](NC(=O)c2nccc(OC)c2OC(=O)CCOC)C(=O)O[C@H]1C [Compound F123] |  | 80 to 100% |  |  |  | 80 to 100% |  |  | 80 to 100%
13 | COc1ccnc(C(=O)N[C@H]2COC[C@H](CCC(C)C)[C@@H](OCCCC(F)(F)F)[C@H](C)OC2=O)c1OCOC(C)=O [Compound F107] | 80 to 100% | 80 to 100% | 80 to 100% | 80 to 100% | 80 to 100% | 80 to 100% | 80 to 100% | 80 to 100% | 80 to 100%
14 | COc1ccnc(C(=O)N[C@H]2COC[C@H](Cc3ccc(F)cc3)[C@@H](OCC(C)C)[C@H](C)OC2=O)c1OCOC(C)=O [Compound F96] | 80 to 100% | 80 to 100% | 80 to 100% | 80 to 100% | 80 to 100% | 80 to 100% | 80 to 100% | 80 to 100% | 80 to 100%
